These compounds were tested against STING (Homo sapiens, UniProt Q86WV6, G230A/H232R/R293Q/R71H) (assay: STING reporter assay in THP1-Dual KO-IFNAR2 cells (2′3′cGAMP stimulation, luciferase reporter)). Conditions: 15 μM 2′3′cGAMP stimulation, 24 h, read-out: Pharmaron, THP1_IFNAR2 STING 24 h Luci Normalized: GeoMean EC50.
Assay type: cell-based
In short: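 THP1-Dual KO-IFNAR2 cells (2×10E6 cells/mL) with compounds at 0.0017-100 μM final, stimulated with 15 μM final 2′3′cGAMP delivered by Lipofectamine 2000; 24 h at 37 °C. Luciferase in supernatant read with QUANTI-Luc Plus; EC50 derived from luminescence.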

Sequence of STING (Q86WV6 whole entry R71H/G230A/H232R/R293Q): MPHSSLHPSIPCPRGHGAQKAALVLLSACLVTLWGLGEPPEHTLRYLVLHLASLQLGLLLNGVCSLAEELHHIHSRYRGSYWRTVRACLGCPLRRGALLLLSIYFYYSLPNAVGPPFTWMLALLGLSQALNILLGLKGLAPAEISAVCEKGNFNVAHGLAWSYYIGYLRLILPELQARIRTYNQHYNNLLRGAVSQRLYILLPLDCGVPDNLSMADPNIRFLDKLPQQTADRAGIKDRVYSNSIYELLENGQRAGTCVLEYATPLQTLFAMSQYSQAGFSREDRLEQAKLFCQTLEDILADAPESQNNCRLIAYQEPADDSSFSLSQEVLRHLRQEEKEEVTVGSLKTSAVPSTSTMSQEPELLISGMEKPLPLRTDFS

Row | Structure (SMILES) | EC50
1 | CC(=O)Nc1c[nH]c2ccc(OCCn3ccc(C(F)(F)F)n3)cc12 [Compound 196, N-(5-(2-(3-(trifluoromethyl)-1H-pyrazol-1-yl)ethoxy)-1H-indol-3-yl)acetamide] | 5000 to 100000 nM
2 | CC(=O)Nc1c[nH]c2ccc(OCCn3cc(C(F)(F)F)cn3)cc12 [Compound 197, N-(5-(2-(4-(trifluoromethyl)-1H-pyrazol-1-yl)ethoxy)-1H-indol-3-yl)acetamide] | 5000 to 100000 nM
3 | CC(=O)Nc1c[nH]c2ccc(CCNc3ccc(C(F)(F)F)cn3)cc12 [Compound 199, N-(5-(2-((5-(trifluoromethyl)pyridin-2-yl)amino)ethyl)-1H-indol-3-yl)acetamide] | 1000 to 5000 nM
4 | N#C[C@H]1C[C@@H]1C(=O)Nc1c[nH]c2ccc(OCCc3ccc(C(F)(F)F)cc3)cc12 [Compound 203, (1S,2S)-2-cyano-N-(5-(4-(trifluoromethyl)phenethoxy)-1H-indol-3-yl)cyclopropane-1-carboxamide] | 200 to 1000 nM
5 | CC(=O)Nc1c[nH]c2ccc(CCOc3ccccc3C3(C)CCN(CC(F)(F)F)CC3)cc12 [Compound 208, N-(5-(2-(2-(4-methyl-1-(2,2,2-trifluoroethyl)piperidin-4-yl)phenoxy)ethyl)-1H-indol-3-yl)acetamide] | 1000 to 5000 nM
6 | O=C(Nc1c[nH]c2ccc(C(O)CCc3ccc(C(F)(F)F)cc3)cc12)C1CC1 (centres unmarked) [Compound 209, N-(5-(1-hydroxy-3-(4-(trifluoromethyl)phenyl)propyl)-1H-indol-3-yl)cyclopropanecarboxamide] | 200 to 1000 nM
7 | CC(=O)Nc1c[nH]c2ccc(CCOc3ccc(C(F)(F)F)cc3)c(F)c12 [Compound 213, N-(4-fluoro-5-(2-(4-(trifluoromethyl)phenoxy)ethyl)-1H-indol-3-yl)acetamide] | 200 to 1000 nM
8 | CC(=O)Nc1c[nH]c2ccc(CCOc3ccc(Cl)c(Cl)c3)cc12 [Compound 214, N-(5-(2-(3,4-dichlorophenoxy)ethyl)-1H-indol-3-yl)acetamide] | 200 to 1000 nM
9 | CC(=O)Nc1c[nH]c2ccc(CCOc3ccc(C(F)(F)F)cn3)cc12 [Compound 215, N-(5-(2-((5-(trifluoromethyl)pyridin-2-yl)oxy)ethyl)-1H-indol-3-yl)acetamide] | 200 to 1000 nM
10 | O=C(Nc1c[nH]c2ccc(OCCc3ccc(C(F)(F)F)cc3)cc12)C1CC1(F)Cl (centres unmarked) [Compound 216, 2-chloro-2-fluoro-N-(5-(4-(trifluoromethyl)phenethoxy)-1H-indol-3-yl)cyclopropane-1-carboxamide] | 200 to 1000 nM
11 | O=C(Nc1c[nH]c2ccc(OCCc3ccc(C(F)(F)F)cc3)cc12)C1(F)CC1 [Compound 218, 1-fluoro-N-(5-(4-(trifluoromethyl)phenethoxy)-1H-indol-3-yl)cyclopropane-1-carboxamide] | 200 to 1000 nM
12 | CC(=O)Nc1c[nH]c2ccc(CCOc3ccc(C4CCOCC4)cc3)cc12 [Compound 226, N-(5-(2-(4-(tetrahydro-2H-pyran-4-yl)phenoxy)ethyl)-1H-indol-3-yl)acetamide] | 1000 to 5000 nM
13 | O=C(Nc1c[nH]c2ccc(O[C@H]3C[C@H](c4ccc(C(F)(F)F)cc4)C3)cc12)C1CN(CCC(F)(F)F)C1 [Compound 227, N-(5-(trans-3-(4-(trifluoromethyl)phenyl)cyclobutoxy)-1H-indol-3-yl)-1-(3,3,3-trifluoropropyl)azetidine-3-carboxamide] | 40 to 200 nM
14 | CC(=O)Nc1c[nH]c2ccc(CCOc3ccc(C)cc3)cc12 [Compound 228, N-(5-(2-(p-tolyloxy)ethyl)-1H-indol-3-yl)acetamide] | 200 to 1000 nM
15 | CC(=O)Nc1c[nH]c2ccc(CCOc3ccc(Cl)cc3)cc12 [Compound 229, N-(5-(2-(4-chlorophenoxy)ethyl)-1H-indol-3-yl)acetamide] | 200 to 1000 nM
16 | CC(=O)Nc1c[nH]c2ccc(CCOc3cccc(C(F)(F)F)c3)cc12 [Compound 231, N-(5-(2-(3-(trifluoromethyl)phenoxy)ethyl)-1H-indol-3-yl)acetamide] | 200 to 1000 nM
17 | CC(=O)Nc1c[nH]c2ccc(CCOc3ccc(C(F)(F)F)nc3)cc12 [Compound 232, N-(5-(2-((6-(trifluoromethyl)pyridin-3-yl)oxy)ethyl)-1H-indol-3-yl)acetamide] | 1000 to 5000 nM

Second part, the compound after the results:

Row | EC50 | Structure (SMILES)
18 | 200 to 1000 nM | CO[C@H]1C[C@H](C(=O)Nc2c[nH]c3ccc(OCCc4ccc(C(F)(F)F)nc4)cc23)C1 [Compound 194, trans-3-methoxy-N-(5-(2-(6-(trifluoromethyl)pyridin-3-yl)ethoxy)-1H-indol-3-yl)cyclobutane-1-carboxamide]
19 | 200 to 1000 nM | O=C(Nc1c[nH]c2ccc(OCCc3ccc(C(F)(F)F)nc3)cc12)C1CN(CC(F)(F)F)C1 [Compound 195, 1-(2,2,2-trifluoroethyl)-N-(5-(2-(6-(trifluoromethyl)pyridin-3-yl)ethoxy)-1H-indol-3-yl)azetidine-3-carboxamide]
20 | 200 to 1000 nM | CC(=O)Nc1c[nH]c2ccc(CCOc3ccc(C4(C)CCN(CC(F)(F)F)CC4)cc3)cc12 [Compound 198, N-(5-(2-(4-(4-methyl-1-(2,2,2-trifluoroethyl)piperidin-4-yl)phenoxy)ethyl)-1H-indol-3-yl)acetamide]
21 | 40 to 200 nM | CC(C)(C)CC(=O)Nc1c[nH]c2ccc(OCCc3ccc(C(F)(F)F)cc3)cc12 [Compound 202, 3,3-dimethyl-N-(5-(4-(trifluoromethyl)phenethoxy)-1H-indol-3-yl)butanamide]
22 | 40 to 200 nM | COCC1(C(=O)Nc2c[nH]c3ccc(OCCc4ccc(C(F)(F)F)cc4)cc23)CC1 [Compound 204, 1-(methoxymethyl)-N-(5-(4-(trifluoromethyl)phenethoxy)-1H-indol-3-yl)cyclopropane-1-carboxamide]
23 | 40 to 200 nM | C[C@H]1C[C@H](C(=O)Nc2c[nH]c3ccc(OCCc4ccc(C(F)(F)F)cc4)cc23)C1 [Compound 205, trans-3-methyl-N-(5-(4-(trifluoromethyl)phenethoxy)-1H-indol-3-yl)cyclobutane-1-carboxamide]
24 | 40 to 200 nM | C[C@H]1C[C@@H]1C(=O)Nc1c[nH]c2ccc(OCCc3ccc(C(F)(F)F)cc3)cc12 [Compound 206, (1S,2S)-2-methyl-N-(5-(4-(trifluoromethyl)phenethoxy)-1H-indol-3-yl)cyclopropane-1-carboxamide]
25 | 40 to 200 nM | O=C(Nc1c[nH]c2ccc(OCCc3ccc(C(F)(F)F)cc3)cc12)C1CC(F)C1 (centres unmarked) [Compound 207, 3-fluoro-N-(5-(4-(trifluoromethyl)phenethoxy)-1H-indol-3-yl)cyclobutane-1-carboxamide]
26 | 40 to 200 nM | O=C(Nc1c[nH]c2ccc(OCCc3ccc(C(F)(F)F)cc3)cc12)C1CN(CC(F)(F)F)C1 [Compound 210, 1-(2,2,2-trifluoroethyl)-N-(5-(4-(trifluoromethyl)phenethoxy)-1H-indol-3-yl)azetidine-3-carboxamide]
27 | 40 to 200 nM | CO[C@H]1C[C@H](C(=O)Nc2c[nH]c3ccc(OCCc4ccc(C(F)(F)F)cc4)cc23)C1 [Compound 211, trans-3-methoxy-N-(5-(4-(trifluoromethyl)phenethoxy)-1H-indol-3-yl)cyclobutane-1-carboxamide]
28 | 40 to 200 nM | O=C(Nc1c[nH]c2ccc(OCCc3ccc(C(F)(F)F)cc3)cc12)C1CC(Cl)C1 (centres unmarked) [Compound 217, 3-chloro-N-(5-(4-(trifluoromethyl)phenethoxy)-1H-indol-3-yl)cyclobutane-1-carboxamide]
29 | 40 to 200 nM | O=C(Nc1c[nH]c2ccc(CCOc3ccc(C(F)(F)F)cc3)cc12)C1CN(CC(F)(F)F)C1 [Compound 219, 1-(2,2,2-trifluoroethyl)-N-(5-(2-(4-(trifluoromethyl)phenoxy)ethyl)-1H-indol-3-yl)azetidine-3-carboxamide]
30 | 40 to 200 nM | CO[C@H]1C[C@H](C(=O)Nc2c[nH]c3ccc(CCOc4ccc(C(F)(F)F)cc4)cc23)C1 [Compound 220, trans-3-methoxy-N-(5-(2-(4-(trifluoromethyl)phenoxy)ethyl)-1H-indol-3-yl)cyclobutane-1-carboxamide]
31 | 40 to 200 nM | CO[C@H]1C[C@@H](C(=O)Nc2c[nH]c3ccc(CCOc4ccc(C(F)(F)F)cc4)cc23)C1 [Compound 221, cis-3-methoxy-N-(5-(2-(4-(trifluoromethyl)phenoxy)ethyl)-1H-indol-3-yl)cyclobutane-1-carboxamide]
32 | 40 to 200 nM | CO[C@H]1C[C@@H](C(=O)Nc2c[nH]c3ccc(OCCc4ccc(C(F)(F)F)cc4)cc23)C1 [Compound 222, cis-3-methoxy-N-(5-(4-(trifluoromethyl)phenethoxy)-1H-indol-3-yl)cyclobutane-1-carboxamide]
33 | 40 to 200 nM | CC(=O)Nc1c[nH]c2cc(F)c(CCOc3ccc(C(F)(F)F)cc3)cc12 [Compound 223, N-(6-fluoro-5-(2-(4-(trifluoromethyl)phenoxy)ethyl)-1H-indol-3-yl)acetamide]
34 | 40 to 200 nM | CC(=O)Nc1c[nH]c2ccc(CCOc3ccc(C4CCC(F)(F)CC4)cc3)cc12 [Compound 224, N-(5-(2-(4-(4,4-difluorocyclohexyl)phenoxy)ethyl)-1H-indol-3-yl)acetamide]
35 | 40 to 200 nM | CC(=O)Nc1c[nH]c2ccc(CCOc3ccc(C4CC(F)(F)C4)cc3)cc12 [Compound 225, N-(5-(2-(4-(3,3-difluorocyclobutyl)phenoxy)ethyl)-1H-indol-3-yl)acetamide]
36 | 40 to 200 nM | CC(=O)Nc1c[nH]c2ccc(CCOc3ccc(C4CCC4)cc3)cc12 [Compound 230, N-(5-(2-(4-cyclobutylphenoxy)ethyl)-1H-indol-3-yl)acetamide]
37 | 40 to 200 nM | CC(=O)Nc1c[nH]c2ccc(OC3CN(c4ccc(C(F)(F)F)cc4)C3)cc12 [Compound 233, N-(5-((1-(4-(trifluoromethyl)phenyl)azetidin-3-yl)oxy)-1H-indol-3-yl)acetamide]
38 | 40 to 200 nM | COC1CC(C(=O)Nc2c[nH]c3ccc(OCCc4ccc(C(F)(F)F)cc4)cc23)C1 (centres unmarked) [Compound 234, 3-methoxy-N-(5-(4-(trifluoromethyl)phenethoxy)-1H-indol-3-yl)cyclobutane-1-carboxamide]

From US12503436B2, “Compounds and compositions for treating conditions associated with STING activity” (NOVARTIS PHARMA AG, priority 2021, dated 2025)
